The record followed here is a melting point compilation (Tetko et al.; mined from patent text by program, amines drawn as free bases though some values may be those of a salt).

Some results are limits rather than exact numbers.

The melting point is the temperature, or range, at which the solid turns liquid. Take `C#CCOc1cc(OCC=C)ccc1-c1nc2cnccc2[nH]1`: the melting point turned out to be 195 °C.
In turn, `Cc1nn(C)c2nc(N)[nH]c(=O)c2c1=O` came in with a melting point above 300 °C.
Consider `NC(=O)c1ccc2ccccc2c1-c1c(P(=O)(c2ccccc2)c2ccccc2)ccc2ccccc12`, for which the melting point came to 122 °C.
The same measure for `Cc1cnc(CCCC#N)c(O)c1`: 132 °C.
For the compound `Cn1c(CNC(=O)Nc2cccc(C(=O)O)c2)c(-c2ccccc2)c2cc(Cl)ccc2c1=O`, the melting point was 236 to 239 °C.
Compound `Clc1ccc(N2CCN(Cc3c[nH]c4ncccc34)CC2)cc1Cl` displayed a melting point of 219 to 220 °C.
The same measure for `O=c1[nH]c(=Cc2ccc(OCc3ccccc3)cn2)c(=O)[nH]c1=Cc1ccc([N+](=O)[O-])cc1`: above 300 °C; for `COC(=O)COc1ccc2cc3c(c(-c4ccc(OC)cc4)c2c1)CNC3=O`: 202 to 203 °C.
With `COc1cc(CCl)cc(OC)c1OCc1nc(-c2ccccc2)oc1C`, the melting point was 118 to 119 °C.
As for `CC(C)C(=O)NC(c1ccc(C=NO)cc1)C(F)(F)F` (configuration not stated), the melting point lay in the range of 169 to 171 °C.
Consider `CC1(C)Oc2ccc(-c3c(N)c(=O)c3=O)cc2[C@@H](N2Cc3ccccc3C2=O)[C@@H]1O` (relative stereo), for which the melting point was above 250 °C.
In the case of `CCCNC(=O)N1C2=NC(C)(C)N(C)C(=O)N2c2ccccc21` it was 85 to 87 °C; in that of `[N-]=[N+]=N[C@@H](C(=O)O)C(c1ccccc1)c1ccccc1`, 108 to 110 °C.
In turn, `COc1ccc2[nH]c3c(c2c1)CC(N(C)C)CC3` (configuration not stated) returned a melting point of 126 to 128 °C.
In the case of `C[C@H](N)c1nc2c(C(F)(F)F)cccc2c(O)c1C(=O)Nc1nccs1` it was 270 °C; in that of `CCOC(=O)C1(n2cc(Cl)cc2C(=O)C(Cl)(Cl)Cl)CC(=O)NC1=O` (configuration not stated), 182 to 185 °C.
`N#CC1=C(Nc2ccc(Cl)cc2[N+](=O)[O-])CSC1` yielded a melting point of 154 to 155 °C.
The compound `CC1CCCC(C)N1Cc1ccc(COc2cccc3c2CN(C2CCC(=O)NC2=O)C3=O)cc1` (configuration not stated) registered a melting point of 205 to 207 °C.
The same measure for `CCCCCCCCCCCCCCCCC(O)CN` (configuration not stated): 75.2 to 76.5 °C; for `O=C1c2ccccc2C(=O)c2sc(-c3ccsc3)nc21`: 258 °C; for `CC(C)c1cccc(C(C)C)c1NC(=O)C1c2ccccc2COc2ccc(CO)cc21` (configuration not stated): 157 to 158 °C.
Turning to `O=c1cc2c(nn1-c1ccc(Cl)cc1)-c1cc(Br)sc1CCC2`, the melting point lay in the range of 143 to 144 °C.
Compound `CN1CCN(C2=Nc3cc(Cl)ccc3N3CCc4cccc2c43)CC1` came in with a melting point of 154 to 156 °C.
In the case of `COCON=C(C(=O)C=CN(C)C)C(=O)OC` it was 99 to 100 °C.
The compound `COc1ccc(-c2ccc3nnn(Cc4ccc5ncccc5c4)c3n2)cc1` returned a melting point of 144 to 146 °C.
As for `CCOC(=O)c1nc(-c2ccc(Cl)cc2Cl)n(-c2ccc(Cl)cc2)c1CF`, the melting point was 124 to 125 °C.
On to `COc1ccc(CCNC(=O)C(=O)O)cc1OC1CCCC1`, for which the melting point lay in the range of 123 to 124 °C.
The compound `CCC1CC(=Cc2ccccc2Cl)C(=O)O1` (configuration not stated) displayed a melting point of 38 to 39 °C.
The compound `CCCOC(=O)Nc1nc2ccccc2c2c1nc(CC)n2CCCCNS(C)(=O)=O` came in with a melting point of 155 to 157 °C.
`Cc1nc(-c2ccc(C(F)(F)F)cc2)[nH]c1CN1CCN(C(c2ccccc2)c2ccccc2)CC1` showed a melting point of 244 °C.
Regarding `CC(C)N(C(=O)CC(C#N)(CCN1CCCCC1)c1ccccc1Cl)C(C)C` (configuration not stated), the melting point lay in the range of 83 to 85 °C.
The compound `CC1(C)CC(=O)c2c(C3CCCCC3)sc(-c3nccs3)c2C1` had a melting point of 101 to 103 °C.
`COc1ccc(CN2C=CC=C3C2=Nc2cc(C)ccc2S(=O)(=O)N3C)cc1`: the melting point is 135 to 136 °C.
As to `Cn1c(=O)[nH]c(=O)c2c1ncn2CC#N`, the melting point is 285 to 287 °C.
Regarding `CC1(Cl)C(=O)N(c2cc(Cl)cc(Cl)c2)N=C1Cl` (configuration not stated), the melting point came to 77 °C.
`CCSc1[nH]c2cccc3c2c1CC1C3C=C(C)CN1C` (configuration not stated) showed a melting point of 168 to 169 °C.
`CCC(CC)c1ccc(Cl)c2nc3n(c12)CCCN3c1cnc(N(C)C)cc1C` came in with a melting point of 228 to 230 °C.
`CC(C)C(NC(=O)OC(C)(C)C)C(=O)NC(C(=O)OCC1OC(n2cc(C=CBr)c(=O)[nH]c2=O)CC1Cl)C(C)C` (configuration not stated) registered a melting point of 102 to 103 °C.
The same measure for `Cc1cc(-c2cc(F)c(F)cc2-c2ccc(S(C)(=O)=O)cc2)ccc1F`: 167 to 168 °C; for `CCCN(CCC)Cc1nc(-c2ncn3c2CN(C)C(=O)c2c-3cccc2C(F)(F)F)no1`: 216 to 218 °C.
In the case of `Cc1c(C)c2c(c(C)c1O)CCC(C)(CC(=O)O)O2` (configuration not stated), the melting point fell in the range of 168 to 171 °C.
For `CCC(C)Cc1ccc(C(=O)O)cc1C#N` (configuration not stated), the melting point lay in the range of 91.2 to 92.1 °C.
On to `CCSc1cc(C)nc(SCC)c1NC(=O)CCCCCCSc1nc2ccccc2[nH]1`, for which the melting point lay in the range of 151 to 156 °C.
The same measure for `COc1ccc2oc(S(=O)(=O)c3ccc(=O)[nH]n3)cc2c1`: 222 to 223 °C; for `COCC(=O)N(C)c1cccc(OCc2ccccc2)c1[N+](=O)[O-]`: 111 to 112 °C; for `CC(C)(C)c1cc(C(C)(C)C)cc(C(C)(C)CC(=O)OP2(=O)Oc3c(cc(C(C)(C)C)cc3C(C)(C)C)Cc3cc(C(C)(C)C)cc(C(C)(C)C)c3O2)c1`: 188 °C.
As for `COc1ccc(N2CCN(c3cc(C)c4c(c3C)CC(C)(C)O4)CC2)cc1`, the melting point lay in the range of 174 to 175 °C.
On to `Cc1cn2c(=O)c3c(F)cccc3nc2s1`, for which the melting point lay in the range of 245 to 246 °C.
As to `Cc1cc(-c2cc(C(F)(F)F)n3ncc(-c4nc(-c5cccc(S(N)(=O)=O)c5)no4)c3n2)ccc1C(F)(F)F`, the melting point was found to be 270 °C.
With `O=Cc1ccc(-c2ccc(-c3ccc(C=O)o3)cn2)cc1`, the melting point was in the range of 204 to 206 °C.
The same measure for `N#Cc1cc(C=O)ccc1-n1cncn1`: 134 to 141 °C; for `O=c1cc(N2CCOCC2)oc2c(-c3ccc(O)c(-c4ccccc4)c3)cccc12`: 243 to 247 °C; for `CCCN(C(=O)C(F)(F)F)c1ccc(I)cc1`: 177 to 179 °C.
As to `Cc1cc(C)c([C@H](O)[C@@H](C#N)c2ccccc2)c(C)c1` (racemic), the melting point is 132 °C.
`CCCS(=O)(=O)c1sc(C(N)=O)c2c1-c1c(cnn1C)CC2` had a melting point of 142 to 143 °C.
The compound `CC(c1oc2ccccc2c(=O)c1-c1cccc(F)c1)n1nc(-c2cc(F)c(O)c(F)c2)c2c(N)ncnc21` (configuration not stated) yielded a melting point of 253 to 257 °C.
`COc1c(-c2ccc3cc(NS(C)(=O)=O)ccc3c2)cc(-n2ccc(=O)[nH]c2=O)cc1C(C)(C)C(=O)O` came in with a melting point above 300 °C.
For the compound `CN1CCN(CCCN(C)C(=O)Cn2c(-c3cccc(Cl)c3)nc3cccnc32)CC1`, the melting point was 114 to 117 °C.
As to `NC(=O)c1sc2ccc(C(F)(F)F)cc2c1O`, the melting point fell in the range of 196 to 197 °C.
The same measure for `O=C(O)Cc1cccc(-c2ccccc2OC2OC(CO)C(O)C(O)C2O)c1` (configuration not stated): 85 to 86 °C.
`COC(=O)c1ccnc(N2CCN(CC3CC3)C2=O)c1` returned a melting point of 75 to 77 °C.
The compound `FC1(F)c2ccccc2Cc2ccccc2C1(F)F` showed a melting point of 53.5 to 55 °C.
